In patent publication US20220354119A1, “COMPOSITION OF A RHEOLOGY MODIFIER AND DIHALOHYDANTOIN” (Rohm and Haas Company, priority 2019, published 2022):
Entries after “also recorded” stand apart in the source; their conditions may differ. Counter-ions that a name gives are not always drawn.

Assays:
[1] = Heat age stability of HEUR-biocide formulation (appearance after heat aging); type: physicochemical; conditions: biocide admixed with HEUR rheology modifier (RM-2020E or RM-8W); oven 50° C. for 2 weeks
Description: A number of biocides were admixed with ACRYSOL™ RM-2020E Rheology Modifier (RM-2020E, A Trademark of The Dow Chemical Company or Its Affiliates) and ACRYSOL™ RM-8W (RM-8W). In addition to testing biocides admixed with RM-2020E or RM-8W as-delivered, acid was also added to the rheology modifiers to lower the pH to approximately 4.5. Samples prepared with the biocide didecyldimethylammonium chloride were only tested when RM-2020E and RM-8W were prepared with 10-15% surfactant in the composition. The compositions were heat-aged in an oven maintained at 50° C. for 2 weeks. Heating aging was also carried out for RM-2020E in the absence of any biocide. If the composition failed the heat aging test, it was not tested for efficacy.
All heat aged samples were compared against a reference HEUR (RM-2020E or
The pass/fail criterion for biocide efficacy was determined by the formation of less than 1×10^4 colony forming units per mL (CFU/mL) of sample tested.

[2] = tested on: pool of 6 different Gram negative and Gram positive bacterial strains; experiment: Bacterial challenge test (TAUNOVATE III High Throughput testing system, MPN); type: cell-based; conditions: 30° C., repeated challenges
Description: Efficacy of all biocides were determined as described for 1-bromo-3-chloro-5,5-dimethylhydantion. The only difference was the concentration of the biocide, which is shown as a range in Table 1.
1-Bromo-3-chloro-5,5-dimethylhydantoin (0.5% aqueous solution) was prepared by dispersing Chlorox Pool and Spa (0.25 g in 49.75 g water). Unpreserved RM-2020E thickeners were dosed with biocide and challenge tested with bacteria using the TAUNOVATE℠ III High Throughput testing system. In general, the tested biocides were calibrated for density and prepared at levels 10× higher than the target concentrations using a robotic system. For example, to target 15 ppm and 40 ppm concentrations of 1-bromo-3-chloro-5,5-dimethylhydantoin respectively, 150 ppm and 400 ppm concentrations of 1-bromo-3-chloro-5,5-dimethylhydantoin were prepared by the automated system. […]
The inoculum was prepared by making a 1:1 pool of overnight cultures of 6 different Gram negative and Gram positive bacterial strains, and then diluted 1:20 with tryptic soy broth. […] Three additional challenges were performed 7 d apart with fresh bacterial cultures and growth recovery was assessed 1 and 7 d after inoculation. […]
(TSB) with indicator. […] The MPN was calculated to determine the relative growth scale rating, which is a measure of the passing or failure of the sample for growth. […]

Row | Compound | Sample Appearance after Heat Age testing [1] | Challenge Test ([2]; 300 ppm biocide in HEUR) | Challenge Test ([2]; 400 ppm biocide in HEUR prepared with 10-15% surfactant)
1 | C/C=C/C=C/C(=O)[O-].[K+] [Potassium sorbate] | Brown | – | –
2 | Oc1ccccc1-c1ccccc1 [o-phenylphenol] | White | – | –
3 | CC1(C)C(=O)N(Cl)C(=O)N1Br [1-bromo-3-chloro-5,5-dimethylhydantoin] | non-degradative; also recorded: unchanged | – | –
4 | Zinc pyrithione | White sediment | – | –
5 | [Na+].[O-][n+]1ccccc1[S-] [Sodium pyrithione] | Bright yellow | – | –
6 | [Na+].[O-]c1ccccc1-c1ccccc1 [Sodium o-phenylphenolate] | White | – | –
7 | CCCCCCCCCCCCNC(=N)N [Dodecylguanidine Hydrochloride] | – | Fail (The pass/fail criterion for biocide efficacy was determined by the formation of less than 1×10^4 colony forming units per mL (CFU/mL) of sample tested) | –
8 | CCCCCCCCCC[N+](C)(C)CCCCCCCCCC.[Cl-] [Didecyldimethylammonium chloride] | unchanged | – | Fail (The pass/fail criterion for biocide efficacy was determined by the formation of less than 1×10^4 colony forming units per mL (CFU/mL) of sample tested)
